Results published in US12440440B2, “Dry powder esketamine composition for use in the treatment of bipolar depression by pulmonary administration” (Novohale Therapeutics, LLC, priority 2017, dated 2025).
Structures can show the parent of a compound that is named as a salt.

Tests used:
[1] = cited from earlier work
[2] = in vivo; cited from earlier work
[3] = cited from earlier work; remark: listed apart in the source
[4] = nebulized saline solution, inhalation; cited from earlier work
[5] = 40-minute i.v. infusion of 0.20 mg/kg or 0.40 mg/kg, TRD patients; cited from earlier work
[6] = Predicted esketamine plasma concentration for 0.20 mg/kg 40 minutes intravenous infusion; type: in vivo; details: human, 0.2 mg/kg, predicted on the basis of literature data
Description: The aim of the study was to determine the amount of puffs needed to obtain plasma concentration similar to that sufficient to achieve antidepressant effect as for 0.20 mg/kg 40 minutes intravenous infusion. It can be predicted on the basis of literature data that this corresponds to concentration at 40 min of infusion between about 60 to 100 ng/ml. It was also the aim to determine the number of puffs that allow to avoid a sharp peak of plasma concentration that is considered an important factor inducing adverse psychomimetic and dissociative effects.

[7] = test system: NMDA receptor; details: cited from earlier work
[8] = i.v. infusion of racemic ketamine
[9] = oral administration of ketamine

CNC1(c2ccccc2Cl)CCCCC1=O (racemic) [ketamine]
half-period of concentration fall ([1]; after i.v. infusion 0.5 mg/kg for 40 minutes): below 2 hours | systemic concentration of parent drug ([1]; i.v. infusion 0.5 mg/kg for 40 minutes, maintained for about 40 minutes): about 200 ng/ml | proportion of patients with treatment-resistant depression responsive to treatment [2]: about ⅔ | bioavailability ([3]; orally administered): 16-20%

CN[C@]1(c2ccccc2Cl)CCCCC1=O [esketamine hydrochloride]
inhaled bioavailability [4]: reduced

CN[C@]1(c2ccccc2Cl)CCCCC1=O [esketamine]
antidepressant effects [5]: rapid onset of robust antidepressant effects | concentration at 40 min [6]: 60 to 100 ng/mL

NC1(c2ccccc2Cl)CCCCC1=O (stereo not drawn) [norketamine]
maximum concentration as level of ketamine concentration [1, 8]: 10-20% | percentage of AUC norketamine to ketamine [1, 8]: 20-40% | activity on NMDA receptor relative to ketamine [7]: many times less active than ketamine | AUC for norketamine relative to ketamine [3, 9]: exceeding 1000% | norketamine level relative to ketamine level [3, 9]: 500-1000%
